Measurements as given in ChEMBL document CHEMBL1151921 (Bioorg Med Chem, 2009).

Key:
[1] = biological target: D(2) dopamine receptor (Homo sapiens) (UniProt P14416); assay: Activity at human dopamine D2L receptor expressed in CHO cells assessed as stimulation of [35S]GTPgammaS binding relative to dopamine; format: functional, cell-based
D(2) dopamine receptor = D(2) dopamine receptor (Rattus norvegicus, UniProt P61169); assay: Displacement of [3H]spiperone from rat dopamine D2L receptor expressed in HEK293 cells; format: cell-based
Sequence of D(2) dopamine receptor (P61169 whole entry): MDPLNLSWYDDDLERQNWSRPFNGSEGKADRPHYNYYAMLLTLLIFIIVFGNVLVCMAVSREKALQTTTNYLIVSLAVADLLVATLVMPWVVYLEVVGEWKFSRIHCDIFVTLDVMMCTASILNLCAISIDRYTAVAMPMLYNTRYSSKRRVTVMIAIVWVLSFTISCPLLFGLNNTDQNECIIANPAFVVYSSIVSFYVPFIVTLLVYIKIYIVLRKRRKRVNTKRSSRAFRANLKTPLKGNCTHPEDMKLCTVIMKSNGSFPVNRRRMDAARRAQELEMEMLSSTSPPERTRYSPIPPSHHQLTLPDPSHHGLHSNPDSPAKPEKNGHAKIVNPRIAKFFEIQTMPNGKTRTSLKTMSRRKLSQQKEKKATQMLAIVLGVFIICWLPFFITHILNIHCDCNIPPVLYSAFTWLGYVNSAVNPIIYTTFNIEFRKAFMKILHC

D(3) dopamine receptor = D(3) dopamine receptor (Rattus norvegicus, UniProt P19020); assay: biochemical
Sequence of D(3) dopamine receptor (P19020 whole entry): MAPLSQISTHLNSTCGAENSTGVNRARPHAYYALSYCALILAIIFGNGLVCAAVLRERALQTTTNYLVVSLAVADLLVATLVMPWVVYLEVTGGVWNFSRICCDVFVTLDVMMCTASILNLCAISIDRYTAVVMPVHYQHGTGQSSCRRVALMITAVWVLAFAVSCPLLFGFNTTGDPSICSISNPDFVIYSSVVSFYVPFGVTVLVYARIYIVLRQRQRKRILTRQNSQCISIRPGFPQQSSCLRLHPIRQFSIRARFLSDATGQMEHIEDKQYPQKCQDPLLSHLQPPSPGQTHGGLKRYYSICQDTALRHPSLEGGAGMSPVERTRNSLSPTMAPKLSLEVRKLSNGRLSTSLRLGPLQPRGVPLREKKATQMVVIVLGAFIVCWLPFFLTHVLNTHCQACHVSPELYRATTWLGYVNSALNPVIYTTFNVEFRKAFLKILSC

Sequence of D(2) dopamine receptor (Homo sapiens) (P14416 whole entry): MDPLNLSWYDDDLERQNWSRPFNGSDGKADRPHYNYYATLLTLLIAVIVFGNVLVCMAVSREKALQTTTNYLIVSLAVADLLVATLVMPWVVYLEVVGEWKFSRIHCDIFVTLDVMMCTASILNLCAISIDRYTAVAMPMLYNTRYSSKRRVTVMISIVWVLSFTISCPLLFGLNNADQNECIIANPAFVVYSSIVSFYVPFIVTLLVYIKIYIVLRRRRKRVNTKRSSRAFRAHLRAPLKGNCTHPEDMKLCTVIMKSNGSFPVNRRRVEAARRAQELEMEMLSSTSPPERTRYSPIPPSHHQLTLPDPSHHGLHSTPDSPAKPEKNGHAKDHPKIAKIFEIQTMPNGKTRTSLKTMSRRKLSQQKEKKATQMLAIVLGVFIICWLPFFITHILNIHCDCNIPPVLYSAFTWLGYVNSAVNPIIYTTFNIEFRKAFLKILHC

SMILES | Emax [1] | Ki (D(2) dopamine receptor) | Ki (D(3) dopamine receptor)
CCCN(CCN1CCN(C(=O)c2ccc3[nH]ccc3c2)CC1)[C@H]1CCc2c(O)cccc2C1 | 80% | – | –
CCCN(CCC)C1CCc2c(O)cccc2C1 (stereo not drawn) | 77.8% | – | –
CCCN(CCN1CCN(c2ccc(-c3ccccc3)cc2)CC1)[C@H]1CCc2nc(N)sc2C1 | – | 0.264 µM | –
CCCN(CCN1CCN(Cc2cc3ccccc3[nH]2)CC1)C1CCc2ccc(O)cc2C1 (stereo not drawn) | – | 0.1 µM | 0.00482 µM
CCCN(CCN1CCN(C(=O)c2ccc3[nH]ccc3c2)CC1)C1CCc2ccc(O)cc2C1 (stereo not drawn) | – | 0.0659 µM | –
CCCN(CCN1CCN(C(=O)c2cc3ccccc3o2)CC1)C1CCc2c(O)cccc2C1 (stereo not drawn) | – | 0.132 µM | 0.00523 µM
